Reference: ChEMBL document CHEMBL1201862, “PubChem BioAssay data set” (2004)
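A five-concentration, 48-hour dose response in 96-well plates underlies each endpoint, interpolated linearly between surrounding concentrations. GI50: concentration for 50% inhibition of growth.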 Active and inactive are the calls of the source. Rule as the data show it: active = GI50 up to about 1.1 µM and inactive = higher.

Assays:
Test in all cases: DTP human tumour cell line panel, 48 h
M14 = test system: M14
MDA-MB-231 = test system: MDA-MB-231
OVCAR-3 = test system: OVCAR-3
MOLT-4 = test system: MOLT-4
MDA-MB-435 = test system: MDA-MB-435
A498 = test system: A498
UACC-62 = test system: UACC-62
OVCAR-4 = test system: OVCAR-4
HOP-62 = test system: HOP-62
OVCAR-8 = test system: OVCAR-8
HOP-92 = test system: HOP-92
SK-OV-3 = test system: SK-OV-3
SK-MEL-5 = test system: SK-MEL-5
EKVX = test system: EKVX
KM12 = test system: KM12
UACC-257 = test system: UACC-257
SF-295 = test system: SF-295
HL-60 = test system: HL-60

Measured: GI50

CCOP(=O)(Nc1ccccc1P(=O)(OCC)OCC)OCC
inactive: M14 > 100 µM | MDA-MB-231 > 100 µM | OVCAR-3 > 100 µM | MOLT-4 > 100 µM | MDA-MB-435 > 100 µM | A498 > 100 µM | UACC-62 > 100 µM | OVCAR-4 > 100 µM | HOP-62 > 100 µM | OVCAR-8 > 100 µM | HOP-92 > 100 µM | SK-OV-3 > 100 µM | SK-MEL-5 > 100 µM | EKVX > 100 µM | KM12 > 100 µM | UACC-257 > 100 µM | SF-295 > 100 µM

CC1=NN(C(=O)CC(=O)Nc2ccccc2)C(=O)C1/N=N/c1ccc(S(N)(=O)=O)cc1 (stereo not drawn)
inactive: M14 80.2 µM | OVCAR-3 66.2 µM | MOLT-4 37.5 µM | A498 > 100 µM | UACC-62 32.8 µM | OVCAR-4 60.4 µM | HL-60 18 µM | HOP-62 88.5 µM | OVCAR-8 61.5 µM | HOP-92 > 100 µM | SK-OV-3 > 100 µM | SK-MEL-5 36.4 µM | EKVX > 100 µM | KM12 > 100 µM | UACC-257 > 100 µM | SF-295 > 100 µM

C(=C\c1cc(-c2ccc3ccccc3n2)nc2ccc3ccccc3c12)/c1ccc2ccccc2n1
inactive: M14 > 100 µM | MDA-MB-231 > 100 µM | OVCAR-3 > 100 µM | MOLT-4 > 100 µM | MDA-MB-435 > 100 µM | A498 > 100 µM | UACC-62 > 100 µM | OVCAR-4 > 100 µM | HL-60 > 100 µM | HOP-62 > 100 µM | OVCAR-8 > 100 µM | SK-OV-3 > 100 µM | SK-MEL-5 > 100 µM | EKVX > 100 µM | KM12 > 100 µM | UACC-257 > 100 µM | SF-295 > 100 µM

CC(C)=CCc1cc(/C=C/C(=O)O)cc(CC=C(C)C)c1O [ARTEPILLIN]
inactive: M14 > 100 µM | MDA-MB-231 > 100 µM | OVCAR-3 > 100 µM | MOLT-4 > 100 µM | MDA-MB-435 > 100 µM | A498 > 100 µM | UACC-62 66.8 µM | OVCAR-4 > 100 µM | HL-60 > 100 µM | HOP-62 > 100 µM | OVCAR-8 > 100 µM | HOP-92 19.7 µM | SK-OV-3 > 100 µM | SK-MEL-5 > 100 µM | EKVX 81.7 µM | KM12 76 µM | UACC-257 > 100 µM | SF-295 > 100 µM
